Experimental data reported in patent publication US20240239771A1, “BACTERIAL EFFLUX PUMP INHIBITORS” (priority 2020, published 2024).
Where a name gives a salt, the structure may show the parent alone. Read-outs that look alike come from different tables or passages of the source.

How the values were obtained:
[1] = tested on: Pseudomonas aeruginosa ATCC 27853; assay: Standard EPI assay: MIC of test antibiotic in absence and presence of EPI; format: cell-based; conditions: for Enhanced Antibiotic's Activity (fold increase), Ceftazidime: ceftazidime with compound at 6.25 μg/mL, relative to MIC without EPI (2 μg/mL); for Enhanced Antibiotic's Activity (fold increase), Doxycycline: doxycycline with compound at 6.25 μg/mL, relative to MIC without EPI (32 μg/mL); for Enhanced Antibiotic's Activity (fold increase), Levofloxacin: levofloxacin with compound at 6.25 μg/mL, relative to MIC without EPI (1 μg/mL)
Method: The EPI assay for the purposes of these studies represents a MIC assay in which the MIC of the antibiotic against the bacteria is tested in the presence of an experimental efflux pump inhibitor (EPI). The highest concentration of the EPI present in the assay typically is ½ of the intrinsic MIC of the compound. If the intrinsic MIC of the EPI is greater than 100 μg/mL, the EPI assay was tested with 50 μg/mL. Using serial dilutions of the EPI, its enhancement of antibiotic activity was then evaluated. The relative EPI activity was decided by comparing the MIC of the antibiotic in the presence of the EPI compound with the intrinsic MIC of the antibiotic alone.
The impact of the EPIs on the MIC values of three test antibiotics (levofloxacin, ceftazidime and doxycycline) against P. aeruginosa ATCC 27853 were evaluated using our standard EPI assay. All three antibiotics levofloxacin, ceftazidime and doxycycline are known substrates of efflux pumps in P. aeruginosa, and are thus well-suited to be test antibiotics to assay for EPI activity.
In our standard EPI assay, the MIC of the test antibiotic is determined in the absence and presence of sub-inhibitory concentrations of the EPI. […] The MIC of levofloxacin against P. aeruginosa ATCC 27853 in the absence of EPI is 1 μg/mL. […] Similarly, the MIC of ceftazidime against P. aeruginosa ATCC 27853 in the absence of EPI is 2 μg/mL. In the presence of 6.25 μg/mL of the Example 4, the MIC of ceftazidime was reduced to 0.5 μg/mL, a 4-fold reduction. […] For all the examples in Table 1, the potentiation activities are determined at 6.25 μg/mL.

[2] = tested on: Pseudomonas aeruginosa ATCC 27853; assay: Intrinsic MIC assay (CLSI broth microdilution); format: cell-based
Method: MIC assays were conducted in accordance with Clinical and Laboratory Standards Institute (CLSI) guidelines for broth microdilution. A 96-well plate containing cation-adjusted Mueller-Hinton (CAMH broth with 2-fold serial dilution of compounds was inoculated with log-phase bacterial at 5×10^5 CFU/mL. The final volume in each well was 100 μL. Each compound was tested in duplicate. The microtiter plates were incubated in an aerobic environment for 18 hours at 37° C. Then the bacterial growth was tested by reading the plate with a VersaMax plate reader (Molecular Devices, Inc.) at 600 nm. The MIC was defined as the lowest compound concentration that inhibited 90% of bacteria growth.
The intrinsic MIC of the experimental EPIs was tested with the method described. The 2-fold serial dilution begins with 100 μg/mL of tested compound in the first column of the 96-well plates. The following Gram-negative bacterial strain was included in these assays: Pseudomonas aeruginosa ATCC 27853.

[3] = ATCC27853, read-out: Intrinsic MIC of Compound
[4] = ATCC27853, P. aeruginosa ATCC 27853, compound alone, read-out: Intrinsic MIC of Compound

NCCOC[C@H](N)CNC(=O)c1[nH]c2ccccc2c1-c1ccccc1 [Example 21, (R)—N-(2-amino-3-(2-aminoethoxy)propyl)-3-phenyl-1H-indole-2-carboxamide hydrogen chloride salt]
Enhanced Antibiotic's Activity (fold increase), Ceftazidime [1]: 1 fold | Enhanced Antibiotic's Activity (fold increase), Doxycycline [1]: 16 fold | Enhanced Antibiotic's Activity (fold increase), Levofloxacin [1]: 4 fold | MIC [2, 3]: > 100 µg/mL

NCCOC[C@H](N)CNC(=O)c1[nH]c2ccc(F)cc2c1C1CCCCC1 [Example 22, (R)—N-(2-amino-3-(2-aminoethoxy)propyl)-3-cyclohexyl-5-fluoro-1H-indole-2-carboxamide hydrogen chloride salt]
Enhanced Antibiotic's Activity (fold increase), Levofloxacin [1]: 32 fold | MIC [2, 3]: 25 µg/mL

NC[C@H]1CN[C@H](CNC(=O)c2[nH]c3ccccc3c2-c2ccc(F)cc2)[C@H]1O [Example 23, N-(((2R,3S,4S)-4-(aminomethyl)-3-hydroxypyrrolidin-2-yl)methyl)-3-(4-fluorophenyl)-1H-indole-2-carboxamide hydrogen chloride salt]
Enhanced Antibiotic's Activity (fold increase), Ceftazidime [1]: 2 fold | Enhanced Antibiotic's Activity (fold increase), Doxycycline [1]: 16 fold | Enhanced Antibiotic's Activity (fold increase), Levofloxacin [1]: 8 fold | MIC [2, 3]: > 100 µg/mL

NC[C@H]1CN[C@H](CNC(=O)c2[nH]c3ccc(F)cc3c2-c2ccccc2)[C@H]1O [Example 24, N-(((2R,3S,4S)-4-(aminomethyl)-3-hydroxypyrrolidin-2-yl)methyl)-5-fluoro-3-phenyl-1H-indole-2-carboxamide hydrogen chloride salt]
Enhanced Antibiotic's Activity (fold increase), Levofloxacin [1]: 16 fold | MIC [2, 3]: > 100 µg/mL

NC[C@H]1CN[C@H](CNC(=O)c2[nH]c3ccccc3c2-c2ccc(F)cc2)C1=O [Example 25, N-(((2R,4S)-4-(aminomethyl)-3-oxopyrrolidin-2-yl)methyl)-3-(4-fluorophenyl)-1H-indole-2-carboxamide hydrogen chloride salt]
Enhanced Antibiotic's Activity (fold increase), Ceftazidime [1]: 1 fold | Enhanced Antibiotic's Activity (fold increase), Doxycycline [1]: 1 fold | Enhanced Antibiotic's Activity (fold increase), Levofloxacin [1]: 1 (1) fold | MIC [2, 3]: > 100 µg/mL

NC[C@H]1CN[C@H](CNC(=O)c2[nH]c3ccccc3c2-c2ccc(F)cc2)[C@@H]1O [Example 26, N-(((2R,3R,4S)-4-(aminomethyl)-3-hydroxypyrrolidin-2-yl)methyl)-3-(4-fluorophenyl)-1H-indole-2-carboxamide hydrogen chloride salt]
Enhanced Antibiotic's Activity (fold increase), Ceftazidime [1]: 2 fold | Enhanced Antibiotic's Activity (fold increase), Doxycycline [1]: 32 fold | Enhanced Antibiotic's Activity (fold increase), Levofloxacin [1]: 16 fold | MIC [2, 3]: > 100 µg/mL

NCC1(O)CN[C@H](CNC(=O)c2[nH]c3ccc(F)cc3c2-c2ccccc2Cl)C1 (stereo partly drawn) [Example 27, N-(((2S)-4-(aminomethyl)-4-hydroxypyrrolidin-2-yl)methyl)-3-(2-chlorophenyl)-5-fluoro-1H-indole-2-carboxamide hydrogen chloride salt]
Enhanced Antibiotic's Activity (fold increase), Levofloxacin [1]: 1 (1) fold | MIC [2, 3]: > 100 µg/mL

NCCC(O)[C@@H](N)CNC(=O)c1cc2cccc(-c3ccc(F)cc3)c2[nH]1 (stereo partly drawn) [Example 28, N-((2S)-2,5-diamino-3-hydroxypentyl)-7-(4-fluorophenyl)-1H-indole-2-carboxamide hydrogen chloride salt]
Enhanced Antibiotic's Activity (fold increase), Levofloxacin [1]: 16 fold | MIC [2, 3]: 50 µg/mL

NCC(O)C[C@H](N)CNC(=O)c1[nH]c2ccccc2c1Sc1cccc(F)c1 (stereo partly drawn) [Example 29, N-((2S)-2,5-diamino-4-hydroxypentyl)-3-((3-fluorophenyl)thio)-1H-indole-2-carboxamide hydrogen chloride salt]
Enhanced Antibiotic's Activity (fold increase), Ceftazidime [1]: 2 fold | Enhanced Antibiotic's Activity (fold increase), Doxycycline [1]: 64 fold | Enhanced Antibiotic's Activity (fold increase), Levofloxacin [1]: 32 fold | MIC [2, 3]: 200 µg/mL

NC[C@@H](O)C[C@H](N)CNC(=O)c1cc2ccc(-c3ccc(F)cc3)cc2[nH]1 [Example 30, 6-(4-fluorophenyl)-N-((2S)-2,5-diamino-4-hydroxypentyl)-1H-indole-2-carboxamide hydrogen chloride salt]
Enhanced Antibiotic's Activity (fold increase), Levofloxacin [1]: 16 fold | MIC [2, 3]: 50 µg/mL

NCCOC[C@H](N)CNC(=O)c1cc2ccc(-c3ccc(F)cc3)cc2[nH]1 [Example 31, (R)—N-(2-amino-3-(2-aminoethoxy)propyl)-6-(4-fluorophenyl)-1H-indole-2-carboxamide hydrogen chloride salt]
Enhanced Antibiotic's Activity (fold increase), Ceftazidime [1]: 4 fold | Enhanced Antibiotic's Activity (fold increase), Doxycycline [1]: 32 fold | Enhanced Antibiotic's Activity (fold increase), Levofloxacin [1]: 8 fold | MIC [2, 3]: > 200 µg/mL

NCCOC[C@H](N)CNC(=O)c1cc2ccc(-c3ccccc3)cc2[nH]1 [Example 32, (R)—N-(2-amino-3-(2-aminoethoxy)propyl)-6-phenyl-1H-indole-2-carboxamide hydrogen chloride salt]
Enhanced Antibiotic's Activity (fold increase), Levofloxacin [1]: 4 fold | MIC [2, 3]: > 200 µg/mL

Cc1c(C(=O)NC[C@@H](N)COCCN)[nH]c2cccc(-c3ccc(F)cc3)c12 [Example 33, (R)—N-(2-amino-3-(2-aminoethoxy)propyl)-4-(4-fluorophenyl)-3-methyl-1H-indole-2-carboxamide hydrogen chloride salt]
Enhanced Antibiotic's Activity (fold increase), Doxycycline [1]: 128 fold | Enhanced Antibiotic's Activity (fold increase), Levofloxacin [1]: 32 fold | MIC [2, 3]: 100 µg/mL

NCCC[C@H](N)COC[C@H](N)CNC(=O)c1[nH]c2ccccc2c1-c1ccc(F)cc1 [Example 34, N—((R)-2-amino-3-(((S)-2,5-diaminopentyl)oxy)propyl)-3-(4-fluorophenyl)-1H-indole-2-carboxamide hydrogen chloride salt]
Enhanced Antibiotic's Activity (fold increase), Doxycycline [1]: 32 fold | Enhanced Antibiotic's Activity (fold increase), Levofloxacin [1]: 8 fold | MIC [2, 3]: > 200 µg/mL

NCC(O)[C@H](N)CNC(=O)c1[nH]c2ccccc2c1-c1ccc(F)cc1 (stereo partly drawn) [Example 35, N-((2R)-2,4-diamino-3-hydroxybutyl)-3-(4-fluorophenyl)-1H-indole-2-carboxamide]
Enhanced Antibiotic's Activity (fold increase), Levofloxacin [1]: 4 fold | MIC [2, 4]: 200 µg/mL

NCC(O)[C@H](N)CNC(=O)c1[nH]c2ccccc2c1C1CCCC1 (stereo partly drawn) [Example 36, 3-cyclopentyl-N-((2R)-2,4-diamino-3-hydroxybutyl)-1H-indole-2-carboxamide]
Enhanced Antibiotic's Activity (fold increase), Ceftazidime [1]: 2 fold | Enhanced Antibiotic's Activity (fold increase), Doxycycline [1]: 32 fold | Enhanced Antibiotic's Activity (fold increase), Levofloxacin [1]: 8 fold | MIC [2, 4]: 100 µg/mL
